Laboratory results taken from patent US10131652B2, “Pyrimidinyloxy benzene derivatives as herbicides” (E. I. DU PONT DE NEMOURS AND COMPANY, priority 2014, dated 2018).

Columns and labels:
Experiment in all cases: Test D pre-/postemergence plant response
Assay type in all cases: in vivo
[1] = system: blackgrass (Alopecurus myosuroides)
In short: (§1)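 Visual rating, 0–100 scale (0 = no effect, 100 = complete control), versus untreated controls 13 to 15 days after treatment in greenhouse. Preemergence: seeds in loam/sand soil. Postemergence: 2 to 18 cm plants, 1- to 4-leaf stage, peat-based medium. Compounds formulated in non-phytotoxic solvent plus surfactant.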

[2] = system: velvetleaf (Abutilon theophrasti)
In short: as §1

[3] = system: yellow nutsedge (Cyperus esculentus)
In short: as §1

[4] = system: waterhemp (common waterhemp, Amaranthus rudis)
In short: as §1

[5] = system: large (Lg) crabgrass (Digitaria sanguinalis)
In short: as §1

[6] = system: morningglory (Ipomoea coccinea)
In short: as §1

[7] = system: johnsongrass (Sorghum halepense)
In short: as §1

[8] = system: oilseed rape (Brassica napus)
In short: as §1

[9] = system: galium (catchweed bedstraw, Galium aparine)
In short: as §1

[10] = system: giant foxtail (Setaria faberii)
In short: as §1

[11] = system: ragweed (common ragweed, Ambrosia elatior)
In short: as §1

[12] = system: Italian ryegrass (Lolium multiflorum)
In short: as §1

[13] = system: barnyardgrass (Echinochloa crus-galli)
In short: as §1

[14] = system: lambsquarters (Chenopodium album)
In short: as §1

soybean (Glycine max) = system: soybean (Glycine max)
In short: as §1

[15] = system: winter wheat (Triticum aestivum)
In short: as §1

corn (Zea mays) = system: corn (Zea mays)
In short: as §1

[16] = system: pigweed (Amaranthus retroflexus)
In short: as §1

[17] = Postemergence, 31 g ai/ha, scale 0 to 100 (0 no effect, 100 complete control)
[18] = Postemergence, 62 g ai/ha, scale 0 to 100, 0 no effect, 100 complete control
[19] = Postemergence, 125 g ai/ha, scale 0 to 100, 0 no effect, 100 complete control
[20] = Preemergence, 16 g ai/ha, scale 0 to 100 (0 no effect, 100 complete control)
[21] = Preemergence, 31 g ai/ha, scale 0 to 100 (0 no effect, 100 complete control)
[22] = Preemergence, 62 g ai/ha, scale 0 to 100 (0 no effect, 100 complete control)

Clc1cnc(Oc2ccccc2-c2cc(C3CC3)on2)nc1 [Compound 183]
100: Plant response rating (scale 0 to 100), Velvetleaf ([2]; Preemergence, 125 g ai/ha) | Plant response rating (scale 0 to 100), Waterhemp ([4]; Preemergence, 125 g ai/ha) | Plant response rating, Waterhemp [4, 21] | Plant response rating (scale 0 to 100), Crabgrass, Large ([5]; Preemergence, 125 g ai/ha) | Oilseed Rape plant response rating [8, 18] | Plant response rating, Oilseed Rape [8, 19] | Plant response rating (scale 0 to 100), Oilseed Rape ([8]; Preemergence, 125 g ai/ha) | Plant response rating, Oilseed Rape [8, 21] | Plant response rating, Oilseed Rape [8, 22] | Plant response rating (scale 0 to 100), Foxtail, Giant ([10]; Preemergence, 125 g ai/ha) | Plant response rating (scale 0 to 100), Lambsquarters ([14]; Preemergence, 125 g ai/ha) | Plant response rating (scale 0 to 100), Pigweed ([16]; Preemergence, 125 g ai/ha) | Plant response rating, Pigweed [16, 22]
98: Plant response rating, Waterhemp [4, 19] | Plant response rating, Crabgrass, Large [5, 22]
40: Plant response rating, Velvetleaf [2, 20] | Plant response rating (scale 0 to 100), Morningglory ([6]; Preemergence, 125 g ai/ha)
65: Plant response rating (scale 0 to 100), Morningglory ([6]; Postemergence, 16 g ai/ha) | Plant response rating (scale 0 to 100), Galium ([9]; Postemergence, 16 g ai/ha) | Galium plant response rating [9, 17] | Plant response rating, Ragweed [11, 19] | Lambsquarters plant response rating [14, 17] | Lambsquarters plant response rating [14, 18] | Plant response rating (scale 0 to 100), Soybean (soybean (Glycine max); Postemergence, 16 g ai/ha)
85: Oilseed Rape plant response rating [8, 17] | Plant response rating, Lambsquarters [14, 21] | Pigweed plant response rating [16, 17] | Pigweed plant response rating [16, 18]
20: Plant response rating, Blackgrass [1, 19] | Plant response rating, Johnsongrass [7, 22] | Wheat plant response rating [15, 17] | Plant response rating, Corn (corn (Zea mays); [19])
0: Plant response rating (scale 0 to 100), Blackgrass ([1]; Postemergence, 16 g ai/ha) | Plant response rating, Blackgrass [1, 20] | Plant response rating, Blackgrass [1, 21] | Plant response rating, Blackgrass [1, 22] | Plant response rating, Nutsedge, Yellow [3, 20] | Plant response rating, Nutsedge, Yellow [3, 21] | Plant response rating, Nutsedge, Yellow [3, 22] | Plant response rating, Morningglory [6, 20] | Plant response rating, Morningglory [6, 21] | Plant response rating (scale 0 to 100), Johnsongrass ([7]; Postemergence, 16 g ai/ha) | Plant response rating, Johnsongrass [7, 20] | Plant response rating, Ragweed [11, 20] | Plant response rating, Ragweed [11, 21] | Plant response rating, Ragweed [11, 22] | Plant response rating (scale 0 to 100), Ryegrass, Italian ([12]; Postemergence, 16 g ai/ha) | Ryegrass, Italian plant response rating [12, 17] | Plant response rating, Ryegrass, Italian [12, 20] | Plant response rating, Ryegrass, Italian [12, 21] | Plant response rating, Soybean (soybean (Glycine max); [20]) | Plant response rating (scale 0 to 100), Wheat ([15]; Preemergence, 125 g ai/ha) | Plant response rating, Wheat [15, 20] | Plant response rating, Wheat [15, 21] | Plant response rating, Wheat [15, 22] | Plant response rating, Corn (corn (Zea mays); [20]) | Plant response rating, Corn (corn (Zea mays); [21]) | Plant response rating, Corn (corn (Zea mays); [22])
75: Waterhemp plant response rating [4, 18] | Morningglory plant response rating [6, 17] | Plant response rating, Lambsquarters [14, 19] | Soybean plant response rating (soybean (Glycine max); [18])
15: Plant response rating (scale 0 to 100), Ragweed ([11]; Postemergence, 16 g ai/ha) | Plant response rating, Ryegrass, Italian [12, 22] | Corn plant response rating (corn (Zea mays); [17]) | Plant response rating, Corn (corn (Zea mays); [18])
10: Plant response rating, Waterhemp [4, 20] | Plant response rating, Crabgrass, Large [5, 19] | Plant response rating, Johnsongrass [7, 19] | Plant response rating (scale 0 to 100), Ragweed ([11]; Preemergence, 125 g ai/ha) | Plant response rating, Ryegrass, Italian [12, 19] | Plant response rating, Soybean (soybean (Glycine max); [21]) | Plant response rating (scale 0 to 100), Corn (corn (Zea mays); Postemergence, 16 g ai/ha)
70: Plant response rating, Crabgrass, Large [5, 21]
45: Plant response rating (scale 0 to 100), Johnsongrass ([7]; Preemergence, 125 g ai/ha)
90: Plant response rating, Velvetleaf [2, 22] | Morningglory plant response rating [6, 18] | Plant response rating, Morningglory [6, 19] | Plant response rating (scale 0 to 100), Barnyardgrass ([13]; Preemergence, 125 g ai/ha) | Plant response rating, Lambsquarters [14, 22] | Plant response rating, Soybean (soybean (Glycine max); [19])
80: Plant response rating, Velvetleaf [2, 21] | Plant response rating (scale 0 to 100), Waterhemp ([4]; Postemergence, 16 g ai/ha) | Waterhemp plant response rating [4, 17] | Plant response rating, Foxtail, Giant [10, 22] | Plant response rating, Lambsquarters [14, 20] | Plant response rating (scale 0 to 100), Soybean (soybean (Glycine max); Preemergence, 125 g ai/ha)
95: Plant response rating, Waterhemp [4, 22] | Plant response rating, Galium [9, 18] | Plant response rating, Galium [9, 19] | Plant response rating (scale 0 to 100), Galium ([9]; Preemergence, 125 g ai/ha) | Plant response rating, Galium [9, 22] | Plant response rating, Pigweed [16, 19]
5: Blackgrass plant response rating [1, 17] | Plant response rating, Blackgrass [1, 18] | Plant response rating (scale 0 to 100), Nutsedge, Yellow ([3]; Postemergence, 16 g ai/ha) | Nutsedge, Yellow plant response rating [3, 17] | Nutsedge, Yellow plant response rating [3, 18] | Plant response rating, Nutsedge, Yellow [3, 19] | Plant response rating (scale 0 to 100), Nutsedge, Yellow ([3]; Preemergence, 125 g ai/ha) | Plant response rating (scale 0 to 100), Crabgrass, Large ([5]; Postemergence, 16 g ai/ha) | Crabgrass, Large plant response rating [5, 17] | Plant response rating, Crabgrass, Large [5, 18] | Plant response rating, Crabgrass, Large [5, 20] | Plant response rating, Morningglory [6, 22] | Johnsongrass plant response rating [7, 17] | Plant response rating, Johnsongrass [7, 18] | Plant response rating, Johnsongrass [7, 21] | Plant response rating (scale 0 to 100), Oilseed Rape ([8]; Postemergence, 16 g ai/ha) | Plant response rating (scale 0 to 100), Foxtail, Giant ([10]; Postemergence, 16 g ai/ha) | Foxtail, Giant plant response rating [10, 17] | Plant response rating, Foxtail, Giant [10, 18] | Plant response rating, Foxtail, Giant [10, 19] | Plant response rating, Foxtail, Giant [10, 20] | Ryegrass, Italian plant response rating [12, 18] | Plant response rating (scale 0 to 100), Barnyardgrass ([13]; Postemergence, 16 g ai/ha) | Barnyardgrass plant response rating [13, 17] | Plant response rating, Barnyardgrass [13, 18] | Plant response rating, Barnyardgrass [13, 19] | Plant response rating, Barnyardgrass [13, 20] | Plant response rating, Barnyardgrass [13, 21] | Plant response rating (scale 0 to 100), Wheat ([15]; Postemergence, 16 g ai/ha) | Plant response rating (scale 0 to 100), Corn (corn (Zea mays); Preemergence, 125 g ai/ha)
55: Velvetleaf plant response rating [2, 17] | Velvetleaf plant response rating [2, 18] | Plant response rating, Velvetleaf [2, 19] | Soybean plant response rating (soybean (Glycine max); [17]) | Plant response rating (scale 0 to 100), Pigweed ([16]; Postemergence, 16 g ai/ha)
50: Plant response rating (scale 0 to 100), Blackgrass ([1]; Preemergence, 125 g ai/ha) | Plant response rating, Oilseed Rape [8, 20] | Plant response rating, Galium [9, 20] | Plant response rating, Galium [9, 21] | Plant response rating (scale 0 to 100), Ryegrass, Italian ([12]; Preemergence, 125 g ai/ha) | Plant response rating, Pigweed [16, 20]
30: Plant response rating (scale 0 to 100), Velvetleaf ([2]; Postemergence, 16 g ai/ha) | Plant response rating, Barnyardgrass [13, 22] | Wheat plant response rating [15, 18] | Plant response rating, Wheat [15, 19]
35: Plant response rating, Foxtail, Giant [10, 21] | Ragweed plant response rating [11, 17] | Plant response rating (scale 0 to 100), Lambsquarters ([14]; Postemergence, 16 g ai/ha) | Plant response rating, Soybean (soybean (Glycine max); [22])
60: Ragweed plant response rating [11, 18] | Plant response rating, Pigweed [16, 21]
